Experiments:
[1] = Analog solubility in TSAG3 gel vehicle (minus Carbopol); assay type: physicochemical; details: for Supernatant concentration Mean (N = 2-3) mg/g at RT after 4 days equilibration / Visual observation of sample after 4 days: TSAG3 gel vehicle minus 1% w/w Carbopol, 30 mg/g added, 20-23° C.
Method: In order to assess the compatibility with the modified TSAG3 gel formulation, several analogs were saturated in the gel components at room temperature (20-23° C.). The method used was as follows: Each analog at the equivalent of 30 mg/g was added to 500 microliters of the gel vehicle (minus the 1% w/w Carbopol as this made the gel too viscous) and allowed to equilibrate using a gently rotating, rotisserie sample holder that was allowed to come to equilibrium over 4 days. The samples were visually observed, filtered and diluted for analysis via HPLC in a concentrations range predetermined to be in a linear range for analyte detection. It is believed that Carbopol makes little difference to the equilibrium solubility at the 1% w/w level but may possibly prevent precipitation of super−saturated solutions of drug initially over 24-48 hours which is a further reason for taking it out to better assess the drug solubility in the remainder of the formulation.

B16F10 cells = assay: Melanin production in B16F10 melanoma cells; assay type: cell-based, mouse; details: 10 nM, 48 h
Method: B16F10 cells were plated at 150,000 cells per well into a 6-well plate and allowed to attach for 24 h in a 37° C. humidified incubator with a 5% CO2 atmosphere. Media was replaced with that containing test agents or vehicle (0.1% DMSO) and cells incubated for a further 48 h. Wells were washed once with PBS and cells removed by trypsinization and transferred to eppendorf tubes. Tubes were centrifuged at 1000 g for 10 minutes and the cell pellet resuspended in 0.5 mls PBS. Since compound A and analogs caused a reduction in cell viability the relative cell number per well was determined by taking an aliquot of the cell suspension in PBS and using CellTiter Glo® to determine the relative number of viable cells (Figure XX5). The PBS/cell suspension was centrifuged at 1000 g for 10 mins and the cell pellet resuspended in 1N NaOH/10% DMSO (v/v) and the tubes heated in a dry heating block at 80° C. with occasional vortexing to mix. In parallel a standard curve of melanin was prepared in 1N NaOH/10% DMSO using Sepia melanin (Sigma, St. Louis, MO) and standards also heated at 80° C. for 1 h. Samples and standards were centrifuged at 3000 g for 5 minutes and aliquots of the supernatant transferred to a 96-well plate for determination of melanin using Abs 475 nm. Melanin cellular content was interpolated from a standard curve and corrected based on the relative cell number in the sample.

[2] = system: Mouse melanoma cells (B16F10); assay: Cytotoxicity in mouse melanoma cells (CellTiter-Glo); assay type: cell-based; details: for effect of oleic acid on cytotoxicity: B16F10, oleic acid at 25 μM in the media
Method: (§1) Mouse melanoma cells (B16F10) (American Type Culture Collection (ATCC), Manassas, VA) were cultured in Dulbecco's minimal essential media (DMEM) containing 10% fetal bovine serum, (Thermofisher, Waltham, MA). Cells were plated at a density of 5,000 cells per well into a 96-well plate and allowed to attach for 24 h in a 37° C. humidified incubator with a 5% CO2 atmosphere. Media was replaced with that containing test agents or vehicle (0.1% dimethylsulphoxide) and cells incubated for a further 48 h. Cell viability was assessed using CellTiter-Glo® (Promega).
(§2) An oleate-bovine serum albumin (BSA) conjugate was prepared by dissolving sodium oleate to 100 mM in methanol. The oleate was diluted to 20 mM with PBS and further diluted 1:1 with 30% fatty acid free albumin and incubated overnight at 37° C. The solution was sterile filtered prior to treating cells. The BSA control was prepared in the same manner, without the fatty acid. […] Non-linear regression analysis was performed using GraphPad PRISM®.

[3] = as above; assay type: cell-based; details: mouse, B16F10 mouse melanoma cells; B16F10, 48 h, representative experiment
Method: as §1, §2

[4] = system: Human subcutaneous pre-adipocytes; assay: Lipid accumulation in differentiating primary human adipocytes (AdipoRed); assay type: cell-based; details: Adipocyte, 144 h, six days, read-out: IC50, reduction in lipid accumulation
Method: Human subcutaneous pre-adipocytes (Zenbio (RTP, NC, U.S.A.)) were received pre-plated in white-walled 96-well plates. A schematic description of the protocol used for examining the effects of Compound A on lipid accumulation in differentiating human adipocytes is shown in FIG. 9. Upon arrival of cells (Day 1) 150 μL media in the wells was replaced with adipocyte differentiation media (Zenbio (RTP, NC, U.S.A.)). The following day media was replaced as described for Day 1. Media was subsequently replaced as described every two to three days. On Day 6, 150 μL of the adipocyte differentiation media was replaced with vehicle (0.1% DMSO), or the SCD1 inhibitors at the concentrations indicated. […] Cytotoxicity following incubation of adipocytes with Compound A was determined in separate wells, not used for Adipored™ staining, and was measured using CellTiter-Glo® (Promega (Madison, WI)) according to the manufacturer's instructions. Following a 10 min room temperature incubation the luminescence measured as relative light units (RLU) was determined in a luminescent plate reader. For adipocytes treated with concentrations of 1.2-100 nM Compound A for 6 days, cell viability as determined by RLU following CellTiter-Glo® remained greater than 75% of the value obtained with vehicle-treated adipocytes. […]

[5] = system: mouse 3T3 L1 preadipocytes; assay: Viability of mouse 3T3 L1 preadipocytes (Cell Titer Blue); assay type: cell-based; details: 10 μM
Method: Viability of mouse 3T3 L1 preadipocytes (ATCC, Mannassas, VA) cultured in a 96-well plate following treatment with 10 μM Compound A and analogs Compounds B, D, E, G and H was assessed using Cell Titer Blue (Promega (Madison, WI)) according to manufacturer's instructions. […] To evaluate how the efficacy of Compound A in reducing lipid accumulation altered with substrate availability, studies were performed in differentiating mouse 3T3-L1 pre-adipocytes using charcoal stripped serum to reduce substrate concentration and also with added exogenous palmitate as the substrate. 3T3-L1 cells were plated at 6000 cells/cm^2 and cultured until confluence at 37° C. in a humidified incubator in 95% air/5% CO2. Two days post-confluence pre-adipocyte differentiation was initiated using adipocyte differentiation medium containing DMEM with high glucose, 10% fetal bovine serum, insulin (1.7 μM), dexamethasone (1 μM), IBMX (0.5 mM), PPARy agonist Rosiglitazone, (1 μM) with penicillin and streptomycin with 10 nM compound A or vehicle (0.1% DMSO). Seventy two hours following the initiation of differentiation, media was replaced with adipocyte maintenance media containing DMEM with high glucose and insulin (1.7 μM) with 10 nM compound A or vehicle (0.1% DMSO) (FIG. 12). Serum composed of 100% FCS or that containing 20, 40, 60, 80 or 100% charcoal stripped serum (cFCS). For experiments where sodium palmitate was added the serum comprised of a 90:10 ratio of FCS:cFCS with 5.0 or 50 μM palmitate/bovine-serum albumin (BSA) complex. Sodium palmitate was conjugated to BSA for use in experiments and was prepared by dissolving to 100 mM in 200 proof ethanol. The palmitate was diluted to 20 mM with D-PBS. The palmitate was then further diluted 1:1 with 30% fatty acid free albumin and incubated overnight at 37° C. The solution was sterile filtered with a 0.22 micron syringe filter prior to treating cells. The BSA control was prepared in the same manner, without the fatty acid. For the studies in which palmitate was added the media additionally contained palmitate/BSA complex at the same concentration as that used during the differentiation stage. Following a further forty-eight hours or ninety-six hours of incubation (Day 6 or Day 8 respectively) the media was removed, wells rinsed with PBS, and 200 μL PBS was added. Five microliters of AdipoRed™ reagent was added to each well, mixed, and allowed to stand at room temperature for 10 mins. Triglyceride was quantitated in a fluorimeter (i3 SpectraMax, Molecular Devices) using ? ex 530 nm and ? em 590 nm to determine relative fluorescent units (RFU). Percent inhibition of triglyceride accumulation in Compound A treated 3T3-L1 adipocytes compared to those treated with vehicle under each condition was calculated by using the formula; % Triglyceride Compound A treated adipocytes=100*(RFU Compound A treated adipocytes/RFU vehicle treated adipocytes).

[6] = system: HSC-1 human squamous carcinoma cells; assay: Cytotoxicity in human squamous carcinoma cells (CellTiter-Glo); assay type: cell-based; details: HSC-1, 72 h, 1% FBS, representative experiment, read-out: EC50 (cell viability)
Method: The human skin squamous carcinoma line (HSC) (Japanese Collection of Research Bioresources Cell Bank (JCRB)) was cultured in Dulbecco's minimal essential media (DMEM) containing 20% fetal bovine serum (FBS), (Thermofisher, Waltham, MA). Cells were plated at a density of 5,000 cells per well into a 96-well plate and allowed to attach for 24 h in a 37° C. humidified incubator with a 5% CO2 atmosphere. Media was replaced with that containing test agents or vehicle (0.1% dimethylsulphoxide) in 1% FBS and cells incubated for a further 72 h. Cell viability was assessed using CellTiter-Glo® (Promega). Non-linear regression analysis was performed using GraphPad PRISM®.

| Supernatant concentration Mean (N = 2-3) mg/g at RT after 4 days equilibration [1] [mg/g] | Visual observation of sample after 4 days [1] | IC50 [4] [nM] | solubility as % of Compound A solubility ([1]; TSAG3 gel vehicle minus Carbopol) | Compound | melanin content (B16F10 cells) | effect of oleic acid on cytotoxicity [2] | EC50 at 48 h [3] [nM] | cell viability compared to vehicle treated cells [5] | EC50 [6] [nM] | reduction of cell viability ([2]; B16F10, 48 h, up to 100 nM) |
| --- | --- | --- | --- | --- | --- | --- | --- | --- | --- | --- |
| 28.78 | Clear solution | 24.2 | – | O=C(COc1ccc(CO)cc1)N1CC[C@H](Oc2ccccc2OC(F)(F)F)C1 [Compound G] | increase in melanin | prevented the cytotoxic effect | 4.3 | No loss in cell viability | 9.2 | – |
| 28.46 | Clear solution | – | – | O=C(COc1ccc(CO)cc1)N1CC[C@H](Oc2ccccc2)C1 [Compound B] | – | – | – | No loss in cell viability | – | – |
| 27.89 | Clear solution | 56 | – | Cc1ccccc1O[C@H]1CCN(C(=O)COc2ccc(CO)cc2)C1 [Compound H] | – | prevented the cytotoxic effect | 46 | No loss in cell viability | – | – |
| 23.18 | Visible precipitate | – | about 77% | O=C(COc1ccc(CO)cc1)N1CC[C@H](Oc2ccc(C(F)(F)F)cc2)C1 [Compound E] | – | – | – | No loss in cell viability | – | did not reduce the viability |
| 28.35 | Clear solution | – | – | O=C(COc1ccc(CO)cc1)N1CC[C@H](Oc2cccc(C(F)(F)F)c2)C1 [Compound D] | – | – | – | No loss in cell viability | – | – |

Source: patent publication US20240307388A1, “FORMULATIONS FOR SUBSTITUTED 3-PYRROLIDINES, COMPOSITIONS CONTAINING, AND USES OF SAME” (LIPIDIO PHARMACEUTICALS, INC., priority 2016, published 2024)
